From ChEMBL document CHEMBL4507318, “Data for DCP probe BAY-985” (2021)

Legend:
[1] = test system: Mast/stem cell growth factor receptor Kit (Homo sapiens), P10721 [V559D,T670I]
[2] = target: Inhibitor of nuclear factor kappa-B kinase subunit epsilon (Homo sapiens) (UniProt Q14164)
[3] = target: Microtubule-associated serine/threonine-protein kinase 1 (Homo sapiens) (UniProt Q9Y2H9)
[4] = target: 5-hydroxytryptamine receptor 3A (Homo sapiens) (UniProt P46098); details: Compound concentration 10.0 uM
[5] = target: Protein kinase C iota type (Homo sapiens) (UniProt P41743)
[6] = target: Dual specificity mitogen-activated protein kinase kinase 3 (Homo sapiens) (UniProt P46734)
[7] = target: Beta-3 adrenergic receptor (Homo sapiens) (UniProt P13945); details: Compound concentration 10.0 uM
[8] = target: Mitogen-activated protein kinase kinase kinase 13 (Homo sapiens) (UniProt O43283)
[9] = target: MAP/microtubule affinity-regulating kinase 3 (Homo sapiens) (UniProt P27448)
[10] = target: GABA-A receptor; anion channel (Rattus norvegicus) (UniProt O09028+P15431+P18506+P18508+P19969+P20236+P23574+P23576+P28471+P28473+P30191+P62813+P63079+P63138+Q91ZM7+Q9ES14); details: Compound concentration 10.0 uM
[11] = target: Mitogen-activated protein kinase kinase kinase kinase 3 (Homo sapiens) (UniProt Q8IVH8)
[12] = target: Mitogen-activated protein kinase 3 (Homo sapiens) (UniProt P27361)
[13] = target: Macrophage colony-stimulating factor 1 receptor (Homo sapiens) (UniProt P07333)
[14] = target: Receptor-interacting serine/threonine-protein kinase 1 (Homo sapiens) (UniProt Q13546)
[15] = target: AP2-associated protein kinase 1 (Homo sapiens) (UniProt Q2M2I8)
[16] = target: RAC-alpha serine/threonine-protein kinase (Homo sapiens) (UniProt P31749)
[17] = target: Fibroblast growth factor receptor 3 (Homo sapiens) (UniProt P22607)
Sequence of Fibroblast growth factor receptor 3 (Homo sapiens) (P22607 23-806 limits assumed): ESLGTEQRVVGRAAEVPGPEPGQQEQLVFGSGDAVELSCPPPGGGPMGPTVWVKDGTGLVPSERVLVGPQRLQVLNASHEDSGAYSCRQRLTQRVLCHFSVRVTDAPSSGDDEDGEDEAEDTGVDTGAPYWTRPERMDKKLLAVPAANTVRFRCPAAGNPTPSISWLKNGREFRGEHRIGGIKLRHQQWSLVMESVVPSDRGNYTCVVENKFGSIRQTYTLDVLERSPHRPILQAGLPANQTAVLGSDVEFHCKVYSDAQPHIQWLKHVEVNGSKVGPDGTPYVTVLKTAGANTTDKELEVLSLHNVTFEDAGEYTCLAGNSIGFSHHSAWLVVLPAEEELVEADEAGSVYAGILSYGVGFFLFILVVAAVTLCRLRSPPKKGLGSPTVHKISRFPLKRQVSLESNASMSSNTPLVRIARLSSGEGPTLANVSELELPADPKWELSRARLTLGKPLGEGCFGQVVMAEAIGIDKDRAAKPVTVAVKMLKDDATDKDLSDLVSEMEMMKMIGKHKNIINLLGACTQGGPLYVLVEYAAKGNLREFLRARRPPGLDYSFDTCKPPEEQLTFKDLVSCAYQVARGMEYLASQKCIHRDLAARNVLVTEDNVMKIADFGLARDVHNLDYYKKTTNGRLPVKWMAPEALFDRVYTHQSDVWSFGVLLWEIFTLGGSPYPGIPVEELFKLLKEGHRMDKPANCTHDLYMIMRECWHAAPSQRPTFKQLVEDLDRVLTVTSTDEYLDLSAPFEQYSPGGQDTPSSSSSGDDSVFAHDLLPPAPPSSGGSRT

[18] = target: Serine/threonine-protein kinase MARK1 (Homo sapiens) (UniProt Q9P0L2)
[19] = target: Tyrosine-protein kinase Fyn (Homo sapiens) (UniProt P06241)
[20] = target: Serine/threonine-protein kinase DCLK1 (Homo sapiens) (UniProt O15075)
[21] = test system: Tyrosine-protein kinase ABL1 (Homo sapiens), P00519 [E255K]
[22] = target: Cyclin-dependent kinase 17 (Homo sapiens) (UniProt Q00537)
[23] = target: Bone morphogenetic protein receptor type-1A (Homo sapiens) (UniProt P36894)
[24] = target: Sigma non-opioid intracellular receptor 1 (Homo sapiens) (UniProt Q99720); details: Compound concentration 10.0 uM
[25] = target: Tyrosine-protein kinase HCK (Homo sapiens) (UniProt P08631)
Sequence of Tyrosine-protein kinase HCK (Homo sapiens) (P08631 2-526 limits assumed): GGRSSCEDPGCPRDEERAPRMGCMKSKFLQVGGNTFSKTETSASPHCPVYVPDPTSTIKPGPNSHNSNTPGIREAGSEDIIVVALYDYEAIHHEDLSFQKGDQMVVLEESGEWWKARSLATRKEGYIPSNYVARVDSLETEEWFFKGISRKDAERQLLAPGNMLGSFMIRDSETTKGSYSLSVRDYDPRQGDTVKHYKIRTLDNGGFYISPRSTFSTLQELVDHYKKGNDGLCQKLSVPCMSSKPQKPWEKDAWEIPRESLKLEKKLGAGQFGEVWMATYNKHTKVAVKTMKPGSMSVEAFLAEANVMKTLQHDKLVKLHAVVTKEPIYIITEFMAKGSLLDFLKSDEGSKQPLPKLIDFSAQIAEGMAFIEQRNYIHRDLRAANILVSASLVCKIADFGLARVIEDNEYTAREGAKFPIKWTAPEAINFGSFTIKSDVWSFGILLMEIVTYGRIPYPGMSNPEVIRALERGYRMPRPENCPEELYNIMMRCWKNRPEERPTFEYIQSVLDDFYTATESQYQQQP

[26] = target: Ribosomal protein S6 kinase alpha-3 (Homo sapiens) (UniProt P51812)
[27] = target: RAF proto-oncogene serine/threonine-protein kinase (Homo sapiens) (UniProt P04049)
[28] = target: Histamine H1 receptor (Homo sapiens) (UniProt P35367); details: Compound concentration 10.0 uM
Sequence of Histamine H1 receptor (Homo sapiens) (P35367 whole entry): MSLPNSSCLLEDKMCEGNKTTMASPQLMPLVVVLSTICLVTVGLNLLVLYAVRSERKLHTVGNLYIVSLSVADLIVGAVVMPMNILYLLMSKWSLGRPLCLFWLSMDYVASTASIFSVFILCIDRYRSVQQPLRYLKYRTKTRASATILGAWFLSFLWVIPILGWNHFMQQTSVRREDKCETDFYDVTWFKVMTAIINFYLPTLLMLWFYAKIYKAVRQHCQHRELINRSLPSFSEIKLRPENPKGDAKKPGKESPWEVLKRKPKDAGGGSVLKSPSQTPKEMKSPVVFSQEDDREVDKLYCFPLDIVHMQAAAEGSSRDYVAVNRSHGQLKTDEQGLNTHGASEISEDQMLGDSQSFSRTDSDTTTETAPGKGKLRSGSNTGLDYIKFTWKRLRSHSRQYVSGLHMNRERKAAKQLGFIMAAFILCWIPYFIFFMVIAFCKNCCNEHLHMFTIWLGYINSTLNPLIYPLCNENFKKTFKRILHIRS

[29] = target: Homeodomain-interacting protein kinase 2 (Homo sapiens) (UniProt Q9H2X6)
[30] = target: Cyclin-dependent kinase-like 1 (Homo sapiens) (UniProt Q00532)
[31] = target: Dual specificity protein kinase CLK3 (Homo sapiens) (UniProt P49761)
Sequence of Dual specificity protein kinase CLK3 (Homo sapiens) (P49761 whole entry, looked up): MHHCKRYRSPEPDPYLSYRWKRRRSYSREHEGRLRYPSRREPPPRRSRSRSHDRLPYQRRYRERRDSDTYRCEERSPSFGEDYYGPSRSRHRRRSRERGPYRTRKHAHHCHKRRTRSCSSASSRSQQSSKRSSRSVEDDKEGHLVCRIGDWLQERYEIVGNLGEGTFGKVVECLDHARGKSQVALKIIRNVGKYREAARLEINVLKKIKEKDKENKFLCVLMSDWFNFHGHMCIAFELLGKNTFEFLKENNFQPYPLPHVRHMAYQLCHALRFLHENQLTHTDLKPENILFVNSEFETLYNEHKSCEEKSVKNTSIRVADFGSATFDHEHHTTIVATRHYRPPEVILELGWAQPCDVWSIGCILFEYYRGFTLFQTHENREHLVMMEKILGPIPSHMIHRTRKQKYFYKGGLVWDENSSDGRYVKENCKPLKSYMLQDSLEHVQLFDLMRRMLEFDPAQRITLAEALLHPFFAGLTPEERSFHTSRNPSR

[32] = target: Serine/threonine-protein kinase pim-2 (Homo sapiens) (UniProt Q9P1W9)
Sequence of Serine/threonine-protein kinase pim-2 (Homo sapiens) (Q9P1W9 whole entry, looked up, the tested form may be a part): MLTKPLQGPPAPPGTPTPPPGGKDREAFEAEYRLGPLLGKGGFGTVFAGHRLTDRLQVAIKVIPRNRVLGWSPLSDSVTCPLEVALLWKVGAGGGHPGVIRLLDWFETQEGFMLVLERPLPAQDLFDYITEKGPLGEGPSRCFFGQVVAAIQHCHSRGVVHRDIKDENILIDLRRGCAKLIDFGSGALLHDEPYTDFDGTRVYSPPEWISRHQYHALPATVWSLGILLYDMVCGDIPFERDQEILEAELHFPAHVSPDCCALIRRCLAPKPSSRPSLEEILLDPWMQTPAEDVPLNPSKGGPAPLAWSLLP

[33] = target: Discoidin domain-containing receptor 2 (Homo sapiens) (UniProt Q16832)
[34] = target: Serine/threonine-protein kinase MRCK gamma (Homo sapiens) (UniProt Q6DT37)
[35] = target: Cyclin-dependent kinase 3 (Homo sapiens) (UniProt Q00526)
[36] = target: TGF-beta receptor type-1 (Homo sapiens) (UniProt P36897)
Sequence of TGF-beta receptor type-1 (Homo sapiens) (P36897 whole entry): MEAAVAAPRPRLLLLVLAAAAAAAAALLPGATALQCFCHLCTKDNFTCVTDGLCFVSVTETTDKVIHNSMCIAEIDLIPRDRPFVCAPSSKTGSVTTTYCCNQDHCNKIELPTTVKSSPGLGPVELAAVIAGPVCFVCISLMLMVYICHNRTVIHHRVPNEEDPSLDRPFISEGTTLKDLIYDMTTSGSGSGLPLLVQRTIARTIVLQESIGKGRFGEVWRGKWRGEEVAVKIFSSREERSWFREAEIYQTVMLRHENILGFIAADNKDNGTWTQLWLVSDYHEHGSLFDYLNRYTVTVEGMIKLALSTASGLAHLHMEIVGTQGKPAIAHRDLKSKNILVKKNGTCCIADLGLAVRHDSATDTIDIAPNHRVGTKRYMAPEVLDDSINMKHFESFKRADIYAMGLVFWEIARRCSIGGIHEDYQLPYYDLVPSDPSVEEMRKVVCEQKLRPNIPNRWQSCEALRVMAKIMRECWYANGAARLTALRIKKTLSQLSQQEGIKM

[37] = target: Serine/threonine-protein kinase 33 (Homo sapiens) (UniProt Q9BYT3)
[38] = target: Epidermal growth factor receptor (Homo sapiens) (UniProt P00533)
[39] = target: G protein-coupled receptor kinase 4 (Homo sapiens) (UniProt P32298)
[40] = target: Serine/threonine-protein kinase Nek4 (Homo sapiens) (UniProt P51957)
[41] = target: Ephrin type-B receptor 6 (Homo sapiens) (UniProt O15197)
Sequence of Ephrin type-B receptor 6 (Homo sapiens) (O15197 whole entry): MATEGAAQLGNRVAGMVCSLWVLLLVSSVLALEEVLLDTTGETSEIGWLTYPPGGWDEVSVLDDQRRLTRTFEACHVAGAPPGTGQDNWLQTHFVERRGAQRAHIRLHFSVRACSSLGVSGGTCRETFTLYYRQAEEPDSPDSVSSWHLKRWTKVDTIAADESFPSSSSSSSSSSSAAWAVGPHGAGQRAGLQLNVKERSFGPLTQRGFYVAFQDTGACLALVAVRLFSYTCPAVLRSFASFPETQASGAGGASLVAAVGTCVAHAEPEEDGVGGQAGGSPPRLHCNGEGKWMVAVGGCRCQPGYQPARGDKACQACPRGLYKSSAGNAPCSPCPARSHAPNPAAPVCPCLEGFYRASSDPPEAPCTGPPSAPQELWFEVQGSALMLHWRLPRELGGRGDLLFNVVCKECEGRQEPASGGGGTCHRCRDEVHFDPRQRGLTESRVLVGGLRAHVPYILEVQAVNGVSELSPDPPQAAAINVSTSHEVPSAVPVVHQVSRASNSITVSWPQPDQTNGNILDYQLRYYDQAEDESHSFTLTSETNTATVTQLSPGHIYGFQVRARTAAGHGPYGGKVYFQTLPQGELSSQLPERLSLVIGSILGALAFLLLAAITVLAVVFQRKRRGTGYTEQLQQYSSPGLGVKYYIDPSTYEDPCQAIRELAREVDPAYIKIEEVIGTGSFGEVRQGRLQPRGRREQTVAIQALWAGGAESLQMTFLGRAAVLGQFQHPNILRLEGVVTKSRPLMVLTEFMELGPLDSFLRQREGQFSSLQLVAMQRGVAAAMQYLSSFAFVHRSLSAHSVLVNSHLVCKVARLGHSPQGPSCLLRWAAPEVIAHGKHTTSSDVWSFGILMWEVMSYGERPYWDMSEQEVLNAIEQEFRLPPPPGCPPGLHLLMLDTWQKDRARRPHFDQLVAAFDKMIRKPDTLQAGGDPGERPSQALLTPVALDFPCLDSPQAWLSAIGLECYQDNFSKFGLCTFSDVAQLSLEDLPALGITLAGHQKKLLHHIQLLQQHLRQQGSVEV

[42] = test system: Proto-oncogene tyrosine-protein kinase receptor Ret (Homo sapiens), P07949 [V804M]
[43] = test system: Epidermal growth factor receptor (Homo sapiens), P00533 [UNDEFINED MUTATION]
[44] = target: Muscarinic acetylcholine receptor M5 (Homo sapiens) (UniProt P08912); details: Compound concentration 10.0 uM
[45] = Compound concentration 1000.0 nM
[46] = Compound concentration 100.0 nM

Sequence of Inhibitor of nuclear factor kappa-B kinase subunit epsilon (Homo sapiens) (Q14164 whole entry): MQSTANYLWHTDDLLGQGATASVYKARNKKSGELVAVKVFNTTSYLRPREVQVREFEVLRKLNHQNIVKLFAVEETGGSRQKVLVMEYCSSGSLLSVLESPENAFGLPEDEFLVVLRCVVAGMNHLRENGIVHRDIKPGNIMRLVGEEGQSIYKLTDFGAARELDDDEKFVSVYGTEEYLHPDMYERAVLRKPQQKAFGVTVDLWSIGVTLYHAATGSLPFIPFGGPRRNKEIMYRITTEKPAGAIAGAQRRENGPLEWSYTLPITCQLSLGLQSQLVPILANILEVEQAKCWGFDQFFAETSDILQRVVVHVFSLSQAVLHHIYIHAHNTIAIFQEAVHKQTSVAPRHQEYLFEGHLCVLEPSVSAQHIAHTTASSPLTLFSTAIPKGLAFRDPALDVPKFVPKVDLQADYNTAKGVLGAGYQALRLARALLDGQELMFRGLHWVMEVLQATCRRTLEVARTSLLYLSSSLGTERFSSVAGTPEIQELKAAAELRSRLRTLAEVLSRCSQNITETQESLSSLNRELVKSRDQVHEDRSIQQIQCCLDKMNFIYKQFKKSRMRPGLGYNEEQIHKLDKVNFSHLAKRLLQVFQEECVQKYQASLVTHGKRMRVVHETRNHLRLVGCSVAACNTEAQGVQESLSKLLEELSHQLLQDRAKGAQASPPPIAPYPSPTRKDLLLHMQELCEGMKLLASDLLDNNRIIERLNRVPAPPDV

**Q.** Which residual activity [1, 45] does the source give for `CN(C)c1ncnc(-c2ccc3nc(Nc4cc(CN5CCN(C(=O)CC(F)(F)F)CC5)ccn4)[nH]c3c2)c1Cl` [BAY-440] here?
**A.** Its residual activity is 100%.

**Q.** And the residual activity [2, 45]?
**A.** Its residual activity is 13%.

**Q.** And the residual activity [3, 45]?
**A.** The residual activity was 86%.

**Q.** And the inhibition [4]?
**A.** The inhibition was 35.6%.

**Q.** And the residual activity [5, 45]?
**A.** Its residual activity is 79%.

**Q.** And the residual activity [6, 45]?
**A.** The residual activity was 73%.

**Q.** And the inhibition [7]?
**A.** Its inhibition is 4.42%.

**Q.** What about the residual activity [8, 45] of the same compound?
**A.** The residual activity was 86%.

**Q.** What about the residual activity [9, 45] of the same compound?
**A.** The residual activity was 100%.

**Q.** What about the inhibition [10] of the same compound?
**A.** Its inhibition is 14%.

**Q.** And the residual activity [11, 45]?
**A.** The residual activity was 74%.

**Q.** What about the residual activity [12, 45] of the same compound?
**A.** Its residual activity is 100%.

**Q.** And the residual activity [13, 45]?
**A.** The residual activity was 100%.

**Q.** And the residual activity [14, 45]?
**A.** The residual activity was 93%.

**Q.** And the residual activity [15, 45]?
**A.** The residual activity was 85%.

**Q.** And the residual activity [16, 45]?
**A.** Its residual activity is 100%.

**Q.** And the residual activity [17, 45]?
**A.** Its residual activity is 100%.

**Q.** And the residual activity [18, 45]?
**A.** The residual activity was 100%.

**Q.** And the residual activity [19, 45]?
**A.** The residual activity was 68%.

**Q.** What about the residual activity [20, 45] of the same compound?
**A.** The residual activity was 92%.

**Q.** And the residual activity [21, 45]?
**A.** The residual activity was 49%.

**Q.** And the residual activity [22, 45]?
**A.** Its residual activity is 100%.

**Q.** And the residual activity [23, 45]?
**A.** The residual activity was 95%.

**Q.** And the inhibition [24]?
**A.** The inhibition was 13.9%.

**Q.** What about the residual activity [25, 45] of the same compound?
**A.** Its residual activity is 80%.

**Q.** What about the residual activity [26, 45] of the same compound?
**A.** Its residual activity is 87%.

**Q.** What about the residual activity [27, 45] of the same compound?
**A.** The residual activity was 100%.

**Q.** What about the inhibition [28] of the same compound?
**A.** The inhibition was 26.4%.

**Q.** What about the residual activity [29, 45] of the same compound?
**A.** Its residual activity is 86%.

**Q.** What about the residual activity [30, 45] of the same compound?
**A.** Its residual activity is 96%.

**Q.** And the residual activity [31, 45]?
**A.** Its residual activity is 100%.

**Q.** What about the residual activity [32, 45] of the same compound?
**A.** Its residual activity is 100%.

**Q.** And the residual activity [33, 45]?
**A.** The residual activity was 71%.

**Q.** And the residual activity [34, 45]?
**A.** Its residual activity is 100%.

**Q.** What about the residual activity [35, 45] of the same compound?
**A.** Its residual activity is 86%.

**Q.** What about the residual activity [36, 45] of the same compound?
**A.** Its residual activity is 100%.

**Q.** What about the residual activity [37, 45] of the same compound?
**A.** Its residual activity is 100%.

**Q.** And the residual activity [38, 45]?
**A.** The residual activity was 100%.

**Q.** What about the residual activity [39, 45] of the same compound?
**A.** Its residual activity is 100%.

**Q.** What about the residual activity [40, 45] of the same compound?
**A.** Its residual activity is 84%.

**Q.** What about the residual activity [41, 45] of the same compound?
**A.** The residual activity was 69%.

**Q.** What about the residual activity [42, 45] of the same compound?
**A.** The residual activity was 93%.

**Q.** And the residual activity [43, 45]?
**A.** The residual activity was 88%.

**Q.** What about the inhibition [44] of the same compound?
**A.** The inhibition was 12.4%.

**Q.** Which results are given for `C[C@H](c1ccnc(Nc2nc3ccc(-c4cc(N(C)C)ncn4)cc3[nH]2)c1)N1CCN(C(=O)CC(F)(F)F)CC1` [BAY-985]?
**A.** residual activity [1, 46]: 99%; residual activity [2, 46]: 9.9%; residual activity [3, 46]: 100%; inhibition [4]: 31.9%; residual activity [5, 46]: 100%; residual activity [6, 46]: 97%; inhibition [7]: 30.4%; residual activity [8, 46]: 100%; residual activity [9, 46]: 100%; inhibition [10]: 5.57%; residual activity [11, 46]: 100%; residual activity [12, 46]: 89%; residual activity [13, 46]: 100%; residual activity [14, 46]: 95%; residual activity [15, 46]: 60%; residual activity [16, 46]: 100%; residual activity [17, 46]: 100%; residual activity [18, 46]: 100%; residual activity [19, 46]: 79%; residual activity [20, 46]: 96%; residual activity [21, 46]: 97%; residual activity [22, 46]: 100%; residual activity [23, 46]: 97%; inhibition [24]: 3.18%; residual activity [25, 46]: 91%; residual activity [26, 46]: 100%; residual activity [27, 46]: 97%; inhibition [28]: 35%; residual activity [29, 46]: 100%; residual activity [30, 46]: 100%; residual activity [31, 46]: 100%; residual activity [32, 46]: 100%; residual activity [33, 46]: 100%; residual activity [34, 46]: 79%; residual activity [35, 46]: 100%; residual activity [36, 46]: 85%; residual activity [37, 46]: 100%; residual activity [38, 46]: 97%; residual activity [39, 46]: 100%; residual activity [40, 46]: 100%; residual activity [41, 46]: 100%; residual activity [42, 46]: 76%; residual activity [43, 46]: 86%; inhibition [44]: 18.7%
